Measured values from article PMC12396409, “Screening and hit evaluation of a microbial metabolite library against the pathogenic Plasmodium falciparum and Toxoplasma gondii parasites” (International Journal for Parasitology: Drugs and Drug …, 2025).
Like-named read-outs stand apart in the source and are kept apart here.

Tests used:
[1] = test system: P. falciparum 3D7 parasites; assay: P. falciparum growth inhibition assay, 1-cycle (72 h treatment), SYBR DNA staining (library screen at 2 μg/mL and dose-response); type: cell-based, Plasmodium falciparum; conditions: 72 h; for activity at 2 µg/mL: Plasmodium falciparum
[2] = test system: P. falciparum 3D7 parasites; assay: P. falciparum growth inhibition assay, 2-cycle (120 h treatment), delayed-death screen and dose-response; type: cell-based, Plasmodium falciparum; conditions: 120 h; for activity at 2 µg/mL: Plasmodium falciparum
[3] = test system: T. gondii RH strain (RH-Tub-eYFP) tachyzoites; assay: microbe, parasite or virus in culture; type: cell-based, Toxoplasma gondii; conditions: 72 h; for percent parasite growth at 2 µg/mL: Toxoplasma gondii
[4] = P. falciparum, screen at 2 μg/mL, replicate 1
[5] = P. falciparum, screen at 2 μg/mL, replicate 2
[6] = T. gondii, screen at 2 μg/mL, replicate 1
[7] = T. gondii, screen at 2 μg/mL, replicate 2
[8] = P. falciparum, parasite screen 2 μg/mL, % growth, replicate 1
[9] = P. falciparum, parasite screen 2 μg/mL, % growth, replicate 2
[10] = T. gondii, screen at 2 μg/mL, replicate 1, read-out: Tg_72h_%Growth_Rep1
[11] = T. gondii, screen at 2 μg/mL, replicate 2, read-out: Tg_72h_%Growth_Rep2
[12] = library screen at 2 μg/mL, % growth, replicate 1
[13] = library screen at 2 μg/mL, % growth, replicate 2

## C=CC(C)(C)[C@@]12C[C@H]3C(=O)N/C(=C/c4c[nH]cn4)C(=O)N3[C@@H]1Nc1ccccc12 [Roquefortine C]
[1]; 3D7, P. falciparum, parasite screen 2 μg/mL, % growth, replicate 1, read-out: Pf_72h_%Growth_Rep1
  activity at 2 µg/mL: 76.2%
[1]; 3D7, P. falciparum, parasite screen 2 μg/mL, % growth, replicate 2, read-out: Pf_72h_%Growth_Rep2
  activity at 2 µg/mL: 78.8%
[2]; 3D7, P. falciparum, parasite screen 2 μg/mL, % growth, replicate 1, read-out: Pf_120h_%Growth_Rep1
  activity at 2 µg/mL: 73.1%
[2]; 3D7, P. falciparum, parasite screen 2 μg/mL, % growth, replicate 2, read-out: Pf_120h_%Growth_Rep2
  activity at 2 µg/mL: 98.8%
[3]; T. gondii, parasite screen 2 μg/mL, % growth, replicate 1, read-out: Tg_72h_%Growth_Rep1
  percent parasite growth at 2 µg/mL: 112%
[3]; T. gondii, parasite screen 2 μg/mL, % growth, replicate 2, read-out: Tg_72h_%Growth_Rep2
  percent parasite growth at 2 µg/mL: 89.5%

## N[C@H](CO)[C@H](O)c1ccc([N+](=O)[O-])cc1 [Chloramphenicol base]
[1]; [4]
  Pf_72h_%Growth_Rep1: 86.96%
[1]; [5]
  Pf_72h_%Growth_Rep2: 86.58%
[2]; [4]
  Pf_120h_%Growth_Rep1: 102.72%
[2]; [5]
  Pf_120h_%Growth_Rep2: 92.34%
[3]; [6]
  Tg_72h_%Growth_Rep1: 134.60%
[3]; [7]
  Tg_72h_%Growth_Rep2: 99.67%

## C=C1NC(=O)[C@H](C(C)C)NC1=O [Cyclo(delta-Ala-L-Val)]
[1]; [4]
  Pf_72h_%Growth_Rep1: 78.49%
[1]; [5]
  Pf_72h_%Growth_Rep2: 81.94%
[2]; [4]
  Pf_120h_%Growth_Rep1: 80.27%
[2]; [5]
  Pf_120h_%Growth_Rep2: 78.77%
[3]; [6]
  Tg_72h_%Growth_Rep1: 112.17%
[3]; [7]
  Tg_72h_%Growth_Rep2: 87.98%

## CS[C@H]1SC[C@H]2C(=O)N(C)[C@@H](C(C)C)C(=O)OC[C@@H](NC(=O)c3cnc4ccccc4n3)C(=O)N[C@@H](C)C(=O)N(C)[C@@H]1C(=O)N(C)[C@@H](C(C)C)C(=O)OC[C@@H](NC(=O)c1cnc3ccccc3n1)C(=O)N[C@@H](C)C(=O)N2C [Quinomycin A]
[1]; [8]
  Pf_72h_%Growth_Rep1: 8.36%
[1]; [9]
  Pf_72h_%Growth_Rep2: -0.61%
[2]; [8]
  Pf_120h_%Growth_Rep1: 15.40%
[2]; [9]
  Pf_120h_%Growth_Rep2: -11.60%
[3]; T. gondii, parasite screen 2 μg/mL, % growth, replicate 1
  Tg_72h_%Growth_Rep1: -0.75%
[3]; T. gondii, parasite screen 2 μg/mL, % growth, replicate 2
  Tg_72h_%Growth_Rep2: -0.09%

## CC1CCCCCC(=O)c2c(O)cc(O)cc2CC(=O)O1 (stereo not drawn) [Curvularin]
[1]; 3D7, P. falciparum, screen at 2 μg/mL, replicate 1, read-out: Pf_72h_%Growth_Rep1
  activity at 2 µg/mL: 94%
[1]; 3D7, P. falciparum, screen at 2 μg/mL, replicate 2, read-out: Pf_72h_%Growth_Rep2
  activity at 2 µg/mL: 47.8%
[2]; 3D7, P. falciparum, screen at 2 μg/mL, replicate 1, read-out: Pf_120h_%Growth_Rep1
  activity at 2 µg/mL: 93.3%
[2]; 3D7, P. falciparum, screen at 2 μg/mL, replicate 2, read-out: Pf_120h_%Growth_Rep2
  activity at 2 µg/mL: 122%
[3]; [10]
  percent parasite growth at 2 µg/mL: 143%
[3]; [11]
  percent parasite growth at 2 µg/mL: 80.4%

## COc1oc([C@H]2C/C(=C/C(C)=C/c3ccc([N+](=O)[O-])cc3)CO2)c(C)c(=O)c1C [Aureothin]
[1]; [12]
  Pf_72h_%Growth_Rep1: 103.52%
[1]; [13]
  Pf_72h_%Growth_Rep2: 87.70%
[2]; [12]
  Pf_120h_%Growth_Rep1: 128.40%
[2]; [13]
  Pf_120h_%Growth_Rep2: 61.20%
[3]; [12]
  Tg_72h_%Growth_Rep1: 66.52%
[3]; [13]
  Tg_72h_%Growth_Rep2: 65.05%

## C[C@H]1C/C=C/[C@H]2[C@@H]3O[C@]3(C)[C@@H](C)[C@H]3[C@H](Cc4ccccc4)NC(=O)[C@]32OC(=O)O/C=C/[C@@](C)(O)C1=O [Cytochalasin E]
[1]; 3D7, 72 h, P. falciparum, screen at 2 μg/mL, replicate 1, read-out: Pf_72h_%Growth_Rep1
  activity at 2 µg/mL: 64%
[1]; 3D7, 72 h, P. falciparum, screen at 2 μg/mL, replicate 2, read-out: Pf_72h_%Growth_Rep2
  activity at 2 µg/mL: 54.5%
[2]; 3D7, 120 h, P. falciparum, screen at 2 μg/mL, replicate 1, read-out: Pf_120h_%Growth_Rep1
  activity at 2 µg/mL: 53.6%
[2]; 3D7, 120 h, P. falciparum, screen at 2 μg/mL, replicate 2, read-out: Pf_120h_%Growth_Rep2
  activity at 2 µg/mL: 53.8%
[3]; [10]
  percent parasite growth at 2 µg/mL: 89.3%
[3]; [11]
  percent parasite growth at 2 µg/mL: 102%
